# According to patent US6599501B1, “Immunomodulators” (Steeno Research Group A/S, priority 1994, dated 2003):
# How the values were obtained:
# Format in all cases: cell-based
# [1] = system: spontaneous IL-8 production by human monocytes; assay: Spontaneous IL-8 production by purified cultured human monocytes (IL-8 ELISA); settings: any concentration of IT9302 between 0.1 and 1000 ng/ml; this and following examples
# [2] = system: IL-1β induced IL-8 production by human peripheral blood mononuclear cells (PBMC); assay: IL-1β induced IL-8 production by human peripheral blood mononuclear cells (IL-8 ELISA); settings: r-hIL-1β 1 ng/ml; 48 hours total incubation
# Experimental: PBMC was purified from heparinized blood of normal human donors. Following gradient centrifugation with-Lymphoprep™ (Nycomed Pharma, Oslo, Norway), the mononuclear cells were diluted to 2×10^6 cells/ml in LPS-free RPMI 1640 medium (Gibco Cat.No. 6187-010) containing 1% sterile filtered heat-inactivated fetal calf serum and penicillin (10,000 IE/ml), streptomycin (10 mg/ml) and gentamycin (2.5 mg/ml). Cells were cultured in 24 wells Nunc Micro Plates (Nunc, Denmark) and in the presence of different concentration of IT9302 (0, 1 μg, 100 ng, 10 ng, 1 ng, 0.1 ng, 0.01 ng/ml) for 24 hours. Following 24 hours of incubation, another dose of IT9302 was added once more, and 1 hour later r-hIL-1β (1 ng/ml) was added to the cell cultures. Supernatants were collected after a total of 48 hours of incubation, and the concentration of the secreted IL-8 was measured by IL-8 ELISA by using an IL-8 ELISA Kit (Dainippon Pharmaceutical Co. Ltd, Osaka, Japan). Briefly, standards and cell supernatants were incubated for one hour and in duplicates at 20° C. on a micro-plate shaker. Then after washing, a second antibody was added for one hour, followed by one hour of incubation with peroxidase-labelled goat anti-rabbit IgG. […] Optical density (OD) was measured in an ELISA reader at 490 nm. IL-8 concentration was calculated by a calibration curve of absorbance of unknown vs concentrations of IL-8 standards. […]
# [3] = system: IRAP production by human monocytes; assay: Production of interleukin-1 receptor antagonist protein (IRAP) by human monocytes (IRAP ELISA); settings: monocytes stimulated 24 hours
# Experimental: PBMC was purified as described above. PBMC was cultured in RMPI 1640, 10% sterile heat-inactivated fetal calf serum (including penicillin 10,000 IE/ml, streptomycin 10 mg/ml, gentamycin 2.5 mg/ml) and the cell concentration was 5×10^6 cells/ml. The monocytes were then purified by standard plastic adherence technique. Monocytes were then cultured in RPMI 1640 with 2% FCS (2.5×10^6 cells/ml) and with different dilutions of rhIL-10 or IT9302. The cells were stimulated for 24 hours and the supernatants were collected for IRAP determination. IRAP ELISA was carried out by using Human IL-1ra Quantikin Immunoassay Kit from R&D Systems Europe Ltd. (Cat.No. DRA 00, Abingdon, Oxon, UK).
# The test was performed as described in “Determination of IRAP concentration”.
# [4] = system: IL-4 production by cultured normal human CD4+ T cells; assay: IL-4 production by CD4+ T lymphocytes (ECL-Western blotting); settings: 100 ng/ml, 3 days, cytosolic fractions
# Experimental: CD4+ T lymphocytes were purified from heparinized normal human blood. Following Lymphoprep™ (Nycomed Pharma, Oslo, Norway) gradient centrifugation, the mononuclear cells were further sorted at 4° C. using Dynabeads (Dynal AS, Norway) coated with monoclonal anti-CD4 antibodies. The beads were detached by adding polyclonal anti-mouse antibody (Dynal AS, Norway). The purity of the positively selected cells were higher than 99% as judged by FACS analysis. […]
# Cells or freeze-dried cell culture supernatants were used for IL-4 protein content determination. […] The blots were then incubated with a polyclonal goat anti-human IL-4 antibody (R&D Systems, UK) followed by a horseradish peroxidase-labelled secondary antibody (Cat.no. RPN 2106 ECL, Amersham, UK), and the immunostaining was detected by exposing a film (Kodak X-OMAT-S, USA) for 90 seconds.
# Thus, CD4+ T cells, purified as described in “Methods for T cell chemotaxis”, and cultured as described in the section “Determination of IL-4 production by CD4+ T lymphocytes”, were stimulated for 3 days with IT9302 (10 ng/ml) or IL-10 (100 ng/ml). Cytosolic fractions were collected and analyzed for their IL-4 content using Western blotting (FIG. 11) and a goat anti-human IL-4 polyclonal antibody.
# [5] = system: class II MHC molecule expression on human monocytes; assay: Class II MHC antigen expression on monocytes (rosetting with HLA class II Dynabeads)
# Experimental: PBMC was purified as described above and monocytes isolated by plastic adherence technique. Monocytes were then cultured in RPMI 1640 with 2% FCS including penicillin 10,000 IE/ml, streptomycin 10 mg/ml, gentamycin 2.5 mg/ml at a cell concentration of 3×10^6/ml. Cells were stimulated for 40 hours in microwells (Nunc, Denmark) with 100 ng/ml rhIL-10, or IT9302 1 μg/ml, 100 ng/ml, 10 ng/ml. At the end of stimulation, the supernatants were removed and the cells were detached from the plastic by freezing at −20° C. for 20 minutes. The cells were collected in 1 ml of cold HBSS with 1% FCS and sorted at 20° C. by using 50 μl/ml Dynabeads M 450 coated with monoclonal antibody for HLA class II β chain (Cat. No. 210.03). After 20 minutes of incubation, the cells were washed 3 times with cold HBSS with 1% FCS and collected on a magnetic separation device. The cells were diluted in the above buffer and stained with methylene blue, and the resetting cells (cells carrying Dynabeads with HLA class II mAb) were counted.
substance,measurement,setting,value
"H-AYMTMKIRN-OH [IT9302, NH2-Ala-Tyr-Met-Thr-Met-Lys-Ile-Arg-Asn-COOH]",effect on viability of cells,[1],did not in this or in the following examples affect viability
"NH2-Ser-Pro-Gly-Gln-Gly-Thr-Gln-Ser-Glu-COOH (H-SPGQGTQSE-OH) [IT9301, nonapeptide from the N-terminal end of hIL-10, control for negative results]",inhibition of IL-1β induced production of IL-8,[2],did not induce any inhibition at all
rhIL-10: Recombinant human interleukin 10 obtained from Pepro Tech Inc.,induction of IRAP production,[3],induction of IRAP
same,production of IL-4 by CD4+ T cells,[4],induce the production of IL-4
same,inhibition of class II MHC expression,[5]; 40 hours stimulation,inhibits class II MHC expression
same,Number of rosetting monocytes,"[5]; stimulation 100 ng/ml, 40 hours",4.6 ± 1.4 × 10^4
